Laboratory results published in US20260102413A1, “TREATING PAIN ASSOCIATED WITH CENTRAL SENSITIZATION” (Medicon Pharmaceuticals, Inc., priority 2022, published 2026).

Assays:
[1] = test system: mice with paclitaxel-induced neuropathic pain (CIPN); assay: von Frey paw withdrawal threshold (mechanical allodynia), paclitaxel-induced CIPN / central sensitization, treatment of established pain, topical test compounds; format: in vivo, mouse
Experimental: Paw withdrawn, licking or shaking were considered positive responses.
(§1) The first doses were administered 5 days after the last administration of paclitaxel (i.e., at day 0).
The PWT test was performed prior to the administration of paclitaxel (day −8) to establish the threshold in mice without neuropathic pain associated with CIPN (the value shown is an average of the PWT in all groups at day −8).
Pain associated with CIPN was established in line with the experiments disclosed herein. Mice were treated with naproxen 2.4% (equimolar to PN 5%), aspirin 1.7% (equimolar to PA2 5%); or ibuprofen 2.5% (equimolar to PI 5%) or vehicle applied topically to both hind paws 3×/day for 14 days.
CIPN was induced in mice with chemotherapeutic agents using established protocols (Carozzi et al, 2010; Currie et al, 2019; Eldridge et al, 2020).
The first doses were administered 1 day after the last administration of paclitaxel (i.e., at day 0).
as §1
The PWT test was performed on day 21, at the end of the experiment, but was also additionally determined on day 14 for LXIX.

[2] = test system: mice with paclitaxel-induced CIPN; assay: von Frey PWT, paclitaxel CIPN model, orally administered compounds; format: in vivo, mouse; settings: mouse, in vivo
Excerpt: CIPN was induced in mice with chemotherapeutic agents using established protocols (Carozzi et al, 2010; Currie et al, 2019; Eldridge et al, 2020). […] This dosing regimen of paclitaxel produces pain associated with CIPN with time courses that are similar to those of pain after paclitaxel administration in cancer patients.
Group 1: naïve mice (i.e. no paclitaxel, n=8) • 2. Group 2: paclitaxel only (n=8) • 3. Group 3: paclitaxel plus vehicle (n=8) • 4. […] Group 5: paclitaxel pluse sulindac (n=8)
The PWT test was performed on day 7.
Phospho-naproxen (PN) and naproxen were given by oral gavage, three times a day for 7 days. Their doses were as follows: PN, 65 mg/kg; naproxen, 35 mg/kg (equimolar to PN). The response of mechanical allodynia to phospho-naproxen (PN) and naproxen was tested on day 7.
(§2) This dosing regimen of paclitaxel produces pain associated with CIPN with time courses that are similar to those of pain after paclitaxel administration in cancer patients.
Phospho-ibuprofen (PI) (Formula III), phospho-glycerol-ibuprofen (PGI) (Formula LXXI), phospho-ibuprofen-amide (PIA) (Formula XI), and ibuprofen were given by oral gavage, three times a day for 6 days. Their doses were as follows: ibuprofen, 40 mg/kg; PI, 80 mg/kg; PIA, 80 mg/kg; all three were equimolar.
The response of mechanical allodynia to these compounds was tested on day 6, using the PWT test.
as §2
NO-sulindac (Formula XLIV), HS-sulindac (Formula XXXIV), platinum-sulindac (Formula LXVII), and NOSH-1 (Formula LIX) were given by oral gavage, three times a day throughout the study period. Their doses were all 100 mg/kg.
The response of mechanical allodynia to these compounds was tested on the days set out in the table below, via the PWT test.
LXIX was given by oral gavage, once a day for 14 days at a dose of 100 mg/kg.
The response of mechanical allodynia to these compounds was tested on day 14, via the PWT test.

[3] = test system: mice with chronic constriction injury of the left sciatic nerve (PTPN); assay: von Frey PWT, chronic constriction injury (CCI) model of PTPN, topical compounds; format: in vivo, mouse; settings: PI, PN 5% on left hind paw 3x/day 14 days; day 14
Experimental: The PWT test was performed following ligation, but prior to treatment to determine baseline values. The PWT was then further measured on day 14.

[4] = test system: mice with NTG-induced migraine; assay: von Frey PWT, NTG-induced migraine model, oral or intraperitoneal compounds; format: in vivo, mouse; settings: mouse, in vivo
Experimental: Phosphonaproxen (Formula VIII), and its parent compound, naproxen, were administered orally to each mouse group. All compounds were administered at equimolar doses. In particular, phosponaproxen was administered at 65 mg/kg, and naproxen was administered at 35 mg/kg, 30 minutes after NTG administration. The response of mechanical allodynia was tested 30 minutes after administration.

in vivo = settings: Sprague-Dawley, rat, po, 95 mg/kg; for AUC(0-t): AUC0-24 h; for AUC(0-t) / Cmax / Tmax: single oral dose PN 95 mg/kg, rats
Experimental: Approximately 800 μL of blood were collected through cardiac puncture and immediately centrifuged.
Tissue samples were harvested using separate dissection instruments for each tissue sample to avoid cross contamination, and snap frozen. The levels of the test drug were determined by HPLC.
As previously described (Wen et al, 2019), each plasma sample was mixed with double volume of acetonitrile and centrifuged at 13,200 rpm for 15 min. Tissue samples were weighed, ddH2O (100-300 μL, depending on tissue weight) was added, and they were homogenized. Following addition of acetonitrile (twice the volume of the homogenate), the mixture was sonicated for 10 min, centrifuged at 13,200 rpm for 15 min, and analyzed by HPLC, as reported (Wen et al, 2019).
It was performed following a previously reported method (Xie et al, 2012). Briefly, the HPLC system consisted of a Waters Alliance 2695 Separations Module (Milford, MA, USA) equipped with a Waters 2998 photodiode array detector (328 nm) and a Thermo Hypersil BDS C18 column (150×4.6 mm, particle size 3 μm). The mobile phase consisted of a gradient between solvent A (formic acid, CH3CN, H2O (0.1:4.9:95 v/v/v)) and solvent B (CH3CN) at a flow rate of 1 mL·min−1 at 30° C. We applied gradient elution from 30 to 100% solvent B from 0-6 min, and it was maintained at 100% solvent B until 8 min.
The methods are identical to those used in Example 27.
A single dose of PN or PSA was given by oral gavage to groups of three Sprague-Dawley rats, which were euthanized and dissected according to the early example. The oral gavage solution of phosphonaproxen was prepared by dissolving in 10% DMSO and then suspending it in corn oil.

CCOP(=O)(OCC)OCCCCOC(=O)C(C)c1ccc2cc(OC)ccc2c1 (stereo not shown) [PN, phospho-naproxen]
Paw-withdrawal threshold, g Mean ± SEM, Day 0 ([1]; group value after paclitaxel, before study drug): 0.64 ± 0.06 g | Paw-withdrawal threshold, g Mean ± SEM, Day 14 ([1]; mouse, in vivo): 1.19 ± 0.09 g | PWT, g Mean ± SEM [2]: 0.66 ± 0.03 g | PWT, g Mean ± SEM [3]: 1.70 ± 0.12 g | PWT, g Mean ± SEM [4]: 1.48 ± 0.22 g | half-life (in vivo): 540 min | AUC(0-t) (in vivo; blood): 1.7 µM·h | AUC(0-t) (in vivo; cerebellum): 3.1 µM·h | AUC(0-t) (in vivo; medulla): 6.9 µM·h | AUC(0-t) (in vivo; stomach): 4340 µM·h | AUC(0-t) (in vivo; vagus nerve): 63.1 µM·h | Cmax (in vivo; blood): 3.5 ± 1.2 µM | Cmax (in vivo; cerebellum): 1.2 ± 0.02 µM | Cmax (in vivo; medulla): 3.1 ± 0.6 µM | Cmax (in vivo; stomach): 717.2 ± 5 µM | Cmax (in vivo; vagus nerve): 24.2 ± 3.1 µM | Tmax (in vivo; blood): 60 min | Tmax (in vivo; cerebellum): 30 min | Tmax (in vivo; medulla): 30 min | Tmax (in vivo; stomach): 60 min | Tmax (in vivo; vagus nerve): 30 min | hydrolysis by carboxylesterases, times slower than PS (carboxylesterases): about 5 times
